{"source": "patent US7312322B1", "about": "“Genetic sequences encoding steroid and juvenile hormone receptor polypeptides and insecticidal modalities therefor” (priority 1998, dated 2007)", "key": {"[1]": {"test_system": "in vitro-translated complex of the M. persicae EcR and USP polypeptides", "assay": "Tritiated ponasterone A filter binding assay with in vitro-translated polypeptides", "design": "species or system Myzus persicae", "details": "tritiated ponasterone A 2.2 nM, 90 min, room temperature; complex versus USP or EcR polypeptide alone (FIG. 4)", "protocol": "In vitro-translated Myzus persicae EcR (MpEcR) polypeptide and an in vitro-translated M. persicae USP (MpUSP) polypeptide were produced labelled with [^35S]Methionine, using the Promega TNT-Coupled Reticulocyte Lysate System. Each batch of lysate contained 100-200 mg/ml of endogenous proteins (using BSA as a standard). The products were analysed by SDS-PAGE and radioautography. The results confirmed that the cloned cDNAs encode proteins of the sizes predicted from the length of putative open reading frames of the cDNAs present in plasmids pMpEcR and pMPUSP. The yields of EcR and USP were similar as assessed by SDS-PAGE.\nIn functional assays, DNA plasmids pMpEcR (AGAL Accession No. NM99/04567; […]) or pMpUSP (AGAL Accession No. NM99/04568; […]), which have been constructed using the vector pBK-CMV, and […] of appropriate TNT RNA Polymerase were added to […] of reaction mix which contained TNT Lysate, TNT Reaction Buffer, amino acid mixture, Rnasin Ribonuclease Inhibitor and nuclease-free water in volumes specified in the manufactureFS protocol. […]\nAfter thawing the translation products, […] aliquots of the reaction mixture containing M. persicae EcR and USP polypeptides were combined to promote formation of the EcR/USP complex. […] The receptor bound ligand was quantified using a TriCarb 2100TR scintillation counter."}, "[2]": {"target": "T1, linker and ligand-binding regions of the L. cuprina EcR polypeptide and partner protein (USP polypeptide) (Lucilia cuprina, UniProt O18531)", "T1 construct": "made in house; host or cells: recombinant baculovirus in insect Sf9 and Sf21 cells (extracts)", "T1 sequence (O18531 366-757)": "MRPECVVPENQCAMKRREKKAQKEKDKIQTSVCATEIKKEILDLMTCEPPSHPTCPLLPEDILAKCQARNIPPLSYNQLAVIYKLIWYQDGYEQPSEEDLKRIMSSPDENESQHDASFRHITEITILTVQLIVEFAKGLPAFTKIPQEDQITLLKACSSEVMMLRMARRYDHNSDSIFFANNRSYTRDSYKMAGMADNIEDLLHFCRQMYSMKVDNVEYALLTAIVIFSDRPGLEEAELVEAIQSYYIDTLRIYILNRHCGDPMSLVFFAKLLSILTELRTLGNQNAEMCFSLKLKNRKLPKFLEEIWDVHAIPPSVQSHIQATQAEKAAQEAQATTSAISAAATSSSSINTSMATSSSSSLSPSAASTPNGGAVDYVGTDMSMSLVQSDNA", "assay": "[3H]ponasterone A binding assay in Sf9 and Sf21 cells infected by recombinant baculovirus (modified method of Yund et al)", "details": "compared to the ecdysone holoreceptor in L. cuprina embryos; no specific binding with control virus (FIG. 3)", "from_the_text": "Control cells contained baculovirus expressing β-galactosidase and CAT only.\nThe segment of pLcEcR.USP.DUAL which encodes the tagged linker and ligand-binding regions of the EcR polypeptide and partner protein (USP polypeptide) sequences, placed operably under the control of polyhedrin and p10 promoters, respectively, was recombined into a baculovirus genome, by employing the Tn7 transposition system (Luckow et al, (1993). The polypeptide products were then co-expressed in insect Sf21 and Sf9 cells, where they associated into a functional complex."}}, "data": [{"smiles": "CC(C)CC[C@@H](O)[C@](C)(O)[C@H]1CC[C@@]2(O)C3=CC(=O)[C@@H]4C[C@@H](O)[C@@H](O)C[C@]4(C)[C@H]3CC[C@]12C", "note": "[PNA, ponasterone A]", "values": [{"measurement": "amount of ligand bound to EcR/USP complex", "setting": "[1]", "result": "significantly higher amounts"}, {"measurement": "binding of labelled ligand in cells infected by the recombinant baculovirus", "setting": "[2]", "result": "highly-significant increase in the binding"}]}]}
